From patent US11293001B2, “Microfluidic cell culture systems” (9493662 Canada Inc., priority 2013, dated 2022)

Columns and labels:
[1] = system: hippocampal and DRG axons; experiment: Axonal elastic modulus by AFM nano-indentation (modified Hertz model); type: cell-based, rat
Procedure: (§1) To minimize remodeling and maintain the parallel organization of the axons in the cultures, DRG neurons were cultured at a density four-times lower than hippocampal neurons and were tested within 7-10 days in culture, whereas hippocampal axons were tested after 14-18 days in culture.
Simultaneous compression and live imaging of single axons were performed on a Bioscope AFM mounted on an inverted optical microscope using a 100× objective (1.45 NA) and 1K charge-coupled device camera. Two different compression experiments were performed. In the first, a 20-mm polystyrene bead was fixed, see Reference [8], to the tip of silicon nitride probes with a nominal spring constant of k=0.01 N/m and used to compress axons with controlled force ranging from 0.1 nN≤F≤4 nN for different time periods. In the second, tipless n-type silicon probes with nominal spring constant of k=0.03 N/m were used to apply constant force to axons. […]
Modeling the underlying glass plane as a sphere with an infinite radius, then the term accounting for the deformation induced by the plane is negligible. Using the method of Reference [13] the δBead-Cylinder can be calculated using Equation (2) where γ is the Poisson ratio of the axon or the bead, E is the Young's modulus of the material, F is the total force applied, e is the eccentricity of the ellipse of contact, and K and

[2] = system: DRG and hippocampal axons; experiment: Immunocytochemistry: distribution of cytosolic components in axons with impaired transport; type: cell-based, rat
Procedure: as §1
Immunocytochemistry was performed as described in Reference [8] with mouse anti-tubulin, rabbit anti neurofilament, rabbit polyclonal anti-Tom20 (mitochondrial preprotein translocases of the outer membrane FL-145); and Alexa Fluor™ 488 conjugated phalloidin. The secondary antibodies used were Rhodamine Red antimouse IgG and Alexa Fluor™ 647 anti-rabbit IgG. Samples were imaged using a laser scanning confocal microscope with a 60× PlanApo oilimmersion objective on an inverted microscope.
To investigate the reason for the higher resistance of DRG axons to compression and to vinblastine effects, the inventors investigated the composition and distribution of cytosolic components in axons with impaired transport. […] The inventors analyzed the distribution of mitochondria, actin, neurofilament, and tubulin after blockade of axonal transport.

[3] = increasing vinblastine concentration
[4] = 1 hour treatment, FIG. 4C insert
[5] = increasing vinblastine concentrations, 1 hour
[6] = vinblastine 5 nM or 500 nM for 1 hour, fixed, AFM

Substance: vinblastine sulfate salt
- average elastic modulus at 30% of indentation (EM30%) ([1]; 5 nM vinblastine, p<0.001): significantly decreased
- slope of the elastic modulus curve as a function of percentage indentation [1, 3]: decreased proportionally with increasing vinblastine concentration
- tubulin and neurofilament aggregation at FAS [2, 3]: proportional increase
- distribution of actin ([2]; vinblastine-treated axons): concentrated between FAS
- distribution of mitochondria ([2]; vinblastine-treated axons): changed from uniform to a discontinuous punctate pattern
- neurofilaments and microtubules ([2]; vinblastine-treated axons): collapsed and accumulated at FAS
- vinblastine concentration at which the volume of the non-FAS segment decreased (hippocampal axons; [4]): 5 nM
- volume of single FAS (hippocampal axons; [5]): did not significantly change
- number and size of FAS (focal axonal swelling) (hippocampal axons; [6]): increased with increasing vinblastine concentrations
- vinblastine concentration at which the volume of the non-FAS segment decreased (DRG axons; [4]): 500 nM
- volume of single FAS (DRG axons; [5]): increased with increasing vinblastine concentrations
- number and size of FAS (focal axonal swelling) (DRG axons; [6]): increased with increasing vinblastine concentrations
